Laboratory results from patent US11046709B2, “Fused 1,4-diazepines as BET bromodomain inhibitors” (THE REGENTS OF THE UNIVERSITY OF MICHIGAN, priority 2017, dated 2021).
Read-outs that look alike come from different tables or passages of the source.

Tests used:
[1] = system: MDA-MB-231; assay: Cell growth inhibition, 4-day proliferation assay, MDA-MB-231; assay type: cell-based; conditions: Homo sapiens
Procedure: (§1) The effect of representative Compounds of the Disclosure on cell viability was determined in a 4-day proliferation assay. Cells were maintained in the appropriate culture medium with 100/0 FBS at 37° C. and an atmosphere of 5% CO2. All the cell lines were used within three months of thawing fresh vials.
(§2) In general, cells were seeded in 96-well flat bottom (Corning COSTAR, Corning, N.Y., cat #3595) or white opaque cell culture plates (BD Falcon, cat #353296) at a density of 3,000-10,000 cells/well in 75 μl of culture medium. Compounds were serially diluted in the appropriate medium, and 75 μl of the diluted compounds were added to the appropriate wells of the cell plate. After the addition of compounds, the cells were incubated at 37° C. in an atmosphere of 5% CO2 for 4 days. Cell viability was determined using the CellTiter-Glo® Luminescent Cell Viability Assay Kit (Promega, Madison, Wis.) for leukemia cells and WST (2-(2-methoxy-4-nitrophenyl)-3-(4-nitrophenyl)-5-(2,4-disulfophenyl)-2H-tetrazolium, monosodium salt) Cell Counting-8 Kit (Dojindo Molecular Technologies, Inc., Rockville, Md.) for adherent cells according to the manufacturers' instructions.
(§3) For WST assay (adherent cells), WST-8 reagent was added to each well at a final concentration of 10% (v/v), and then the plates were incubated at 37° C. for 1-2 hours for color development. The absorbance was measured at 450 nm using a SPECTRAmax PLUS plate reader (Molecular Devices, Sunnyvale, Calif.). The readings were normalized to the DMSO-treated cells and the half maximal inhibitory concentration (IC50) was calculated by nonlinear regression (four parameters sigmoid fitted with variable slope, least squares fit, and no constraint) analysis using the GraphPad Prism 5 software (GraphPad Software, La Jolla, Calif.).
(§4) For CellTiter-Glo assay (suspension cells), 100 μl of CellTiter-Glo® Reagent was added to each well, and then the plates were incubated at room temperature for 10-20 minutes. The luminescent signal was measured using a Tecan Infinite M1000 multimode microplate reader (Tecan, Morrisville, N.C.). The readings were normalized to the DMSO-treated cells and the IC50 was calculated by nonlinear regression (four parameters sigmoid fitted with variable slope, least squares fit, and no constraint) analysis using the GraphPad Prism 5 software. See US 2014/0256706.
(§5) For a number of representative compounds in Table 5, their IC50 values in cell growth inhibition activity in the RS4;11 and MOLM-13 human leukemia cell lines and the MDA-MB-231 breast cancer cell line were evaluated using the WST-8 assay described in EXAMPLE 7, with the data shown in Table 7.

[2] = system: MOLM-13; assay: Cell growth inhibition, 4-day proliferation assay, MOLM-13; assay type: cell-based; conditions: Homo sapiens
Procedure: as §1, §2, §3, §4, §5

[3] = MDA-MB-231, WST-8 assay, Table 7, read-out: Cell growth inhibition (IC50 (nM)) MDA-MB-231
[4] = MOLM-13, WST-8 assay, Table 7, read-out: Cell growth inhibition (IC50 (nM)) MOLM-13

Row | SMILES | IC50 [1, 3] [nM] | IC50 [2, 4] [nM] | other results
1 | Cc1c(C#Cc2cnn(CCCC(=O)O)c2)sc2c1C(c1ccc(Cl)cc1)=N[C@@H](C)c1nnc(C)n1-2 [Compound 101, (S)-4-(4-((4-(4-chlorophenyl)-3,6,9-trimethyl-6H-thieno[3,2-f][1,2,4]triazolo[4,3-a][1,4]diazepin-2-yl)ethynyl)-1H-pyrazol-1-yl)butanoic acid] | 1030 ± 700 |  | 
2 | Cc1c(C#Cc2cncn2C)sc2c1C(c1ccc(Cl)cc1)=N[C@@H](CC(=O)N1CCNCC1)c1nnc(C)n1-2 [Compound 164] | 304 | 85.4 | 
3 | Cc1c(C#Cc2cnn(C)c2)sc2c1C(c1ccc(Cl)cc1)=N[C@@H](CC(C)C)c1nnc(C)n1-2 [Compound 108, (S)-4-(4-chlorophenyl)-6-isobutyl-3,9-dimethyl-2-((1-methyl-1H-pyrazol-4-yl)ethynyl)-6H-thieno[3,2-f][1,2,4]triazolo[4,3-a][1,4]diazepine] | 200 ± 30 | 232 | 
4 | Cc1c(C#Cc2ccccn2)sc2c1C(c1ccc(Cl)cc1)=N[C@@H](CC(=O)N1CCCC(F)(F)C1)c1nnc(C)n1-2 [Compound 172, (S)-2-(4-(4-chlorophenyl)-3,9-dimethyl-2-(pyridin-2-ylethynyl)-6H-thieno[3,2-f][1,2,4]triazolo[4,3-a][1,4]diazepin-6-yl)-1-(3,3-difluoropiperidin-1-yl)ethan-1-one] |  | 71 | 
5 | Cc1nnc(C[C@@H]2N=C(c3ccc(Cl)cc3)c3c(sc(C#CC4CCCC4)c3C)-n3c(C)nnc32)o1 [Compound 146, (S)-2-((4-(4-chlorophenyl)-2-(cyclopentylethynyl)-3,9-dimethyl-6H-thieno[3,2-f][1,2,4]triazolo[4,3-a][1,4]diazepin-6-yl)methyl)-5-methyl-1,3,4-oxadiazole] | 22.5 | 17.4 | 
6 | Cc1c(C#Cc2ccc(O)cn2)sc2c1C(c1ccc(Cl)cc1)=N[C@@H](C)c1nnc(C)n1-2 [Cpd. No. 42] |  |  | IC50 ([2]; MOLM-13, 96 h, read-out: Cell IC50 (nM) MOLM13): 10.6 nM; IC50 ([1]; MDA-MB-231, 96 h, read-out: Cell IC50 (nM) MDA-MB-231): 7.9 nM
7 | Cc1nnc(C[C@@H]2N=C(c3ccc(Cl)cc3)c3c(sc(C#CC(C)C)c3C)-n3c(C)nnc32)o1 [Compound 148, (S)-2-((4-(4-chlorophenyl)-3,9-dimethyl-2-(3-methylbut-1-yn-1-yl)-6H-thieno[3,2-f][1,2,4]triazolo[4,3-a][1,4]diazepin-6-yl)methyl)-5-methyl-1,3,4-oxadiazole] | 7.7 | 6 | 
8 | Cc1nnc(C[C@@H]2N=C(c3ccc(Cl)cc3)c3c(sc(C#CC4(O)COC4)c3C)-n3c(C)nnc32)o1 [Compound 142, (S)-3-((4-(4-chlorophenyl)-3,9-dimethyl-6-((5-methyl-1,3,4-oxadiazol-2-yl)methyl)-6H-thieno[3,2-f][1,2,4]triazolo[4,3-a][1,4]diazepin-2-yl)ethynyl)oxetan-3-ol] | 785 | 95.9 | 
9 | Cc1nnc(C[C@@H]2N=C(c3ccc(Cl)cc3)c3c(sc(C#Cc4ccc(F)cn4)c3C)-n3c(C)nnc32)o1 [Compound 140, (S)-2-((4-(4-chlorophenyl)-2-((5-fluoropyridin-2-yl)ethynyl)-3,9-dimethyl-6H-thieno[3,2-f][1,2,4]triazolo[4,3-a][1,4]diazepin-6-yl)methyl)-5-methyl-1,3,4-oxadiazole] | 52.6 | 11.3 | 
10 | Cc1c(C#Cc2ccc(N)nc2)sc2c1C(c1ccc(Cl)cc1)=N[C@@H](CC(C)C)c1nnc(C)n1-2 [Compound 107, (S)-5-((4-(4-chlorophenyl)-6-isobutyl-3,9-dimethyl-6H-thieno[3,2-f][1,2,4]triazolo[4,3-a][1,4]diazepin-2-yl)ethynyl)pyridin-2-amine] | 320 ± 90 | 363 | 
11 | Cc1nnc(C[C@@H]2N=C(c3ccc(Cl)cc3)c3c(sc(C#Cc4cnn(C)c4)c3C)-n3c(C)nnc32)o1 [Compound 141, (S)-2-((4-(4-chlorophenyl)-3,9-dimethyl-2-((1-methyl-1H-pyrazol-4-yl)ethynyl)-6H-thieno[3,2-f][1,2,4]triazolo[4,3-a][1,4]diazepin-6-yl)methyl)-5-methyl-1,3,4-oxadiazole] | 31.2 | 1.7 | 
12 | Cc1c(C#Cc2cnn(C)c2)sc2c1C(c1ccc(Cl)cc1)=N[C@@H](CC(=O)N1CCN(C)CC1)c1nnc(C)n1-2 [Compound 162, (S)-2-(4-(4-chlorophenyl)-3,9-dimethyl-2-((1-methyl-1H-pyrazol-4-yl)ethynyl)-6H-thieno[3,2-f][1,2,4]triazolo[4,3-a][1,4]diazepin-6-yl)-1-(4-methylpiperazin-1-yl)ethan-1-one] | 109 ± 38 | 19.2 | 
13 | Cc1c(C#Cc2cnn(C)c2)sc2c1C(c1ccc(Cl)cc1)=N[C@@H](CC(=O)N1CCN(C(=O)OC(C)(C)C)CC1)c1nnc(C)n1-2 [Compound 160, tert-butyl (S)-4-(2-(4-(4-chlorophenyl)-3,9-dimethyl-2-((1-methyl-1H-pyrazol-4-yl)ethynyl)-6H-thieno[3,2-f][1,2,4]triazolo[4,3-a][1,4]diazepin-6-yl)acetyl)piperazine-1-carboxylate] | 108 | 8.5 | 
14 | Cc1nnc(C[C@@H]2N=C(c3ccc(Cl)cc3)c3c(sc(C#CC(C)(C)C)c3C)-n3c(C)nnc32)o1 [Compound 147, (S)-2-((4-(4-chlorophenyl)-2-(3,3-dimethylbut-1-yn-1-yl)-3,9-dimethyl-6H-thieno[3,2-f][1,2,4]triazolo[4,3-a][1,4]diazepin-6-yl)methyl)-5-methyl-1,3,4-oxadiazole] | 20.1 | 7.4 | 
15 | Cc1c(C#Cc2cnn(CCC(=O)O)c2)sc2c1C(c1ccc(Cl)cc1)=N[C@@H](C)c1nnc(C)n1-2 [Compound 102, (S)-3-(4-((4-(4-chlorophenyl)-3,6,9-trimethyl-6H-thieno[3,2-f][1,2,4]triazolo[4,3-a][1,4]diazepin-2-yl)ethynyl)-1H-pyrazol-1-yl)propanoic acid] |  |  | IC50 ([1]; MDA-MB-231, read-out: Cell growth inhibition (IC50 (nM)) MDA-MB-231): 3000 ± 300 nM
16 | Cc1c(C#Cc2ccccn2)sc2c1C(c1ccc(Cl)cc1)=N[C@@H](CC(=O)N1CC(C)(O)C1)c1nnc(C)n1-2 [Compound 138, (S)-2-(4-(4-chlorophenyl)-3,9-dimethyl-2-(pyridin-2-ylethynyl)-6H-thieno[3,2-f][1,2,4]triazolo[4,3-a][1,4]diazepin-6-yl)-1-(3-hydroxy-3-methylazetidin-1-yl)ethan-1-one] | 211 | 15 to 30 | 
17 | Cc1c(C#Cc2ccccn2)sc2c1C(c1ccc(Cl)cc1)=N[C@@H](CC(=O)N1CCC(F)(F)C1)c1nnc(C)n1-2 [Compound 171, (S)-2-(4-(4-chlorophenyl)-3,9-dimethyl-2-(pyridin-2-ylethynyl)-6H-thieno[3,2-f][1,2,4]triazolo[4,3-a][1,4]diazepin-6-yl)-1-(3,3-difluoropyrrolidin-1-yl)ethan-1-one] |  | 151 | 
18 | Cc1c(C#Cc2ccccn2)sc2c1C(c1ccc(Cl)cc1)=N[C@@H](CC(=O)N1CCC(F)CC1)c1nnc(C)n1-2 [Compound 173, (S)-2-(4-(4-chlorophenyl)-3,9-dimethyl-2-(pyridin-2-ylethynyl)-6H-thieno[3,2-f][1,2,4]triazolo[4,3-a][1,4]diazepin-6-yl)-1-(4-fluoropiperidin-1-yl)ethan-1-one] | 9.67 |  | 
19 | Cc1c(C#Cc2ccccn2)sc2c1C(c1ccc(Cl)cc1)=N[C@@H](CC(=O)N1CC3(CNC3)C1)c1nnc(C)n1-2 [Compound 170, (S)-2-(4-(4-chlorophenyl)-3,9-dimethyl-2-(pyridin-2-ylethynyl)-6H-thieno[3,2-f][1,2,4]triazolo[4,3-a][1,4]diazepin-6-yl)-1-(2,6-diazaspiro[3.3]heptan-2-yl)ethan-1-one] |  | 115 | 
20 | Cc1c(C#Cc2cncn2C)sc2c1C(c1ccc(Cl)cc1)=N[C@@H](CC(=O)N1CCN(C)CC1)c1nnc(C)n1-2 [Compound 165, (S)-2-(4-(4-chlorophenyl)-3,9-dimethyl-2-((1-methyl-1H-imidazol-5-yl)ethynyl)-6H-thieno[3,2-f][1,2,4]triazolo[4,3-a][1,4]diazepin-6-yl)-1-(4-methylpiperazin-1-yl)ethan-1-one] |  | 36.4 | 
